Patent US20170049843A1, “Hepatocyte Growth Factor Mimics as Therapeutic Agents” (WASHINGTON STATE UNIVERSITY, priority 2011, published 2017)
“Also recorded” adds a separate entry of the source. Where two headings read alike, the source gives them in different places. Where a SMILES comes first, the peptide text is derived from it. [ ]: non-standard residue; d: D form. The star is where a group is joined. Hexanoyl = CCCCCC(=O)*; Ahx = NCCCCCC(=O)O

Experiments:
scopolamine treated rats = experiment: Morris water maze, scopolamine amnesia model; type: in vivo, rat
aged rats = experiment: Morris water maze, aged rat model; type: in vivo; settings: oral 2 mg/kg/day, 8 days, vs untreated
Protocol: FIG. 37. Dihexa improves spatial learning in aged rats. Group latencies to find the submerged platform in the Morris water maze task of spatial memory are shown. Five minutes before beginning testing 24 month old mixed sex (3 male and 3 female/group) Sprague Dawley rats were administered […] (2 mg/kg) orally by gavage (suspension in isotonic NaCl), on a daily basis. There were 5 trials per day for 8 days. The latency to find the pedestal was considered a measure of learning and memory. […] Swim speed was determined from these values.

MDCK cells = experiment: Augmentation of HGF-dependent cell scattering in MDCK cells; type: cell-based, canine
Protocol: HGF mimetic activity was typically assessed by one or both of two methods: augmentation of HGF-dependent c-Met phosphorylation in HEK293 cells, or 2) augmentation of HGF-dependent cell scattering in MDCK cells. All the compounds in Family one were tested using the c-Met phosphorylation assay. […]
MDCK cells were grown to 100% confluency on the coverslips in six-well plates and washed twice with PBS. The confluent coverslips were then aseptically transferred to new six well plates containing 900 μl serum free DMEM. Norleual, Hinge peptide, and/or HGF (2.5 ng/ml) were added to appropriate wells. Control wells received PBS vehicle. Plates were incubated at 37° C. with 5% CO2 for 48 hours. Media was removed and cells were fixed with methanol. Cells were stained with Diff-Quik Wright-Giemsa (Dade-Behring, Newark, Del.) and digital images were taken. Coverslips were removed with forceps and more digital images were captured. Pixel quantification of images was achieved using Image J and statistics were performed using Prism 5 and InStat v.3.05.

Blood stability studies = type: in vitro ADME, rat; settings: data not shown
HGF = biological target: T1, HGF (Homo sapiens, UniProt P14210); experiment: HGF dimerization; type: biochemical; settings: Dihexa, 30 minutes in the presence of heparin
T1 construct: purchased R&D Systems (Minneapolis, Minn.)
T1 sequence (P14210 32-728): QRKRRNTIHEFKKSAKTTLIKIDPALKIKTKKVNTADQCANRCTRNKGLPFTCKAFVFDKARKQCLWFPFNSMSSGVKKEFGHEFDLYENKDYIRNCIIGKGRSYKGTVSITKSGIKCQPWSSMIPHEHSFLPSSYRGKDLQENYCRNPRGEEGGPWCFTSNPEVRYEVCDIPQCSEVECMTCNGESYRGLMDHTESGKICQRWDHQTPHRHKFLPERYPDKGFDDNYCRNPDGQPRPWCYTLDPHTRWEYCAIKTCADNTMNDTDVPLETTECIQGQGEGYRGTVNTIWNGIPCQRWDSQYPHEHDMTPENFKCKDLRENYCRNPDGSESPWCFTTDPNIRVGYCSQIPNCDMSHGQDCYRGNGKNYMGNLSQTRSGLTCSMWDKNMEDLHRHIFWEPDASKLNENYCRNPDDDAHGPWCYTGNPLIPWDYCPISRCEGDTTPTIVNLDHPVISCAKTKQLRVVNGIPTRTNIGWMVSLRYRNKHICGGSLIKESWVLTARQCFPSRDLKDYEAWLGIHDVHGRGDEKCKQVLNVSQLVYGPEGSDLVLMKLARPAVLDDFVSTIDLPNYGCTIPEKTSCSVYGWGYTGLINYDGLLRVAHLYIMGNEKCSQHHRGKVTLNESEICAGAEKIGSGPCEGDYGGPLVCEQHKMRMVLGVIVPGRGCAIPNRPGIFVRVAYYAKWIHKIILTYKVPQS
Protocol: HGF dimerization was assessed using PAGE followed by silver staining (Kawas et al., 2011). Human HGF at a concentration of 0.08 ng/μl with or without 6-AH analogs was incubated with heparin at a final concentration of 5 μg/ml. Loading buffer was then added to each sample and the mixture separated by native PAGE using gradient Criterion XT precast gels (4-12% Bis-Tris; Biorad Laboratories, Hercules, Calif.). Next the gel was silver stained for the detection of the HGF monomers and dimers. Bands were quantitated from digital images using a UVP phosphoimager (Upland, Calif.).

[1] = Microsomal metabolism, rat liver microsomes; type: in vitro ADME; settings: pooled rat liver microsomes, n=3
[2] = Brain uptake of 3H-dihexa after carotid infusion; type: in vivo, rat; settings: 30 minutes after infusion
Protocol: FIG. 32. […] Rats fitted with a carotid cannula were anesthetized and infused with 0.5 ml of isotonic saline containing 10 μCi of ^3H-dihexa and 2 μCi ^14C-Inulin, a vascular marker. Thirty minutes after infusion the rats were decapitated, the brains removed, and various brain regions dissected. The tissues were then weighed and solubilized with NCS, an organic protein solubilizing agent, and 10 ml of scintillation was added. Samples were counted with a scintillation counter using two different windows to quantitate both ^3H and ^14C counts. ^3H/^14C ratios were determined so that blood derived dihexa contamination of tissues could be determined. […] The average ^3H/^14C for blood was 1687. Mean+/−S.E.M.: n=4.

hippocampal neurons [3] = experiment: Protection of hippocampal neurons from growth factor deprivation; type: cell-based; settings: starved 72 hrs, +/− HGF sub-threshold
Protocol: FIG. 46. […] Dissociated hippocampal neurons were starved for 72 hrs+/−HGF at sub-threshold concentrations […] and or Dihexa at 2 different concentrations 10^−8M and 10^−8M. (**p<0.001.*** p<0.000I; Mean+/−SEM).

6-OHDA rat = experiment: 6-OHDA lesioned rat, motor tests; type: in vivo
Protocol: FIG. 48. Dihexa restores performance in the rope hang test. After 2 weeks of 6-OHDA lesion, rats were treated with either 0.5 mg/kg or equivalent volumes of the vehicle ip.
FIG. 49. […] Baseline was calculated from 4 naïve animals to get the pre-op baseline for normal un-lesioned animals. 2 animals were lesioned with 6-OHDA in the right Hemisphere. 14 days post-op, treatment with vehicle started. 2 animals were lesioned with 6-OHDA in the right Hemisphere. 14 days post-op, treatment with Dihexa started. Animals were tested every other day. Dosing regimen (2 mg/kg by oral gavage/48 hrs).

hippocampal neurons [4] = experiment: Spinogenesis in mRFP-β-actin transfected dissociated hippocampal neurons; type: cell-based, rat; settings: 10^−12 M, acute 30 minute application on DIV12; vehicle 17.4
[5] = icv, scopolamine 70 nmol, Dihexa 300 pmol, Hinge 300 pmol, vehicle 43.0 s

SMILES: CCCCCC(=O)N[C@@H](Cc1ccc(O)cc1)C(=O)N[C@H](C(=O)NCCCCCC(N)=O)[C@@H](C)CC [Dihexa, N-hexanoic-Tyr-Ile-(6)-aminohexanoic amide] (Hexanoyl-Tyr-Ile-[Ahx]-NH2)
- latency to find the pedestal in the water maze (reversal of scopolamine deficits) (scopolamine treated rats; ICV 10 pmoles (low dose)): but not 10 pmoles
- latency to find the pedestal in the water maze (reversal of scopolamine deficits) (scopolamine treated rats; ICV 100 pmoles (high dose), daily, 8 days): reversed scopolamine-dependent learning deficits; also recorded: completely overcome the scopolamine deficits
- group latency to find the submerged platform (scopolamine treated rats; icv 0.1 nmol after scopolamine, days 5-8): significantly improved performance
- group latency to find the submerged platform (scopolamine treated rats; icv 1 nmol after scopolamine): different from the scopolamine group
- time in the target quadrant, day 9 probe trial (scopolamine treated rats; icv 1 nmol after scopolamine, vs vehicle control): not different
- mean latency to find the pedestal, final day of training (scopolamine treated rats; [5]): 62.3 s
- mean latency to find the pedestal, fourth day of training (scopolamine treated rats; [5]): 63.0 s
- mean latency to find the pedestal, day one of training (scopolamine treated rats; icv, scopolamine 70 nmol, Dihexa 300 pmol, Hinge 300 pmol, vehicle 89.3 s): 115.2 s
- group latency to find the submerged platform (scopolamine treated rats; ip 0.05 mg/kg after scopolamine): not different than the scopolamine group
- group latency to find the submerged platform (scopolamine treated rats; ip 0.25 mg/kg after scopolamine): different than the scopolamine
- group latency to find the submerged platform (scopolamine treated rats; ip 0.50 mg/kg after scopolamine, 0.5 mg/kg): different than the scopolamine; also recorded: not different than the vehicle control group
- time in the target quadrant, day 9 probe trial (scopolamine treated rats; ip delivery, each dose group vs scopolamine→PBS): Each of the treatment groups was different than the scopolamine
- latency to find the pedestal in the water maze (reversal of scopolamine deficits) (scopolamine treated rats; oral 1.25 mg/kg (low dose), days 3-8): partially reversed
- latency to find the pedestal in the water maze (reversal of scopolamine deficits) (scopolamine treated rats; oral 2 mg/kg/day (high dose), 2 mg/kg/day): no different than controls; also recorded: completely overcome the scopolamine deficits; also recorded: completely reversed the scopolamine-dependent learning deficit
- time in the target quadrant, day 9 probe trial (scopolamine treated rats; oral delivery, both dose groups vs scopolamine→PBS): Both of the treatment groups were different than the scopolamine
- water maze performance (latency) of aged rats (aged rats): preformed significantly better in the water maze than untreated rats; also recorded: performed significantly better than untreated controls; also recorded: significantly different than that of the non-treated rats
- augmentation of HGF-dependent MDCK cell scattering (MDCK cells): stimulate MDCK cell scattering
- augmentation of HGF-dependent MDCK cell scattering (MDCK cells; listed as N-hexanoyl-Tyr-Ile-(6) aminohexamide): spectacularly augment HGF-dependent MDCK cell scattering
- stable in the blood (Blood stability studies): over 5 hours
- inhibition of HGF dimerization (HGF): blocks HGF dimerization
- average half-life, Phase I metabolism [1]: 8.49 h
- average intrinsic clearance (Clin) [1]: 2.72 µL/min/mg
- concentration of dihexa in brain regions compared to blood ([2]; 3H/14C ratios): all brain regions concentrated dihexa
- average 3H/14C ratio for blood ([2]; 10 μCi 3H-dihexa and 2 μCi 14C-Inulin, n=4): 1687
- protection of neurons from growth factor deprivation (hippocampal neurons [3]): protects neurons from growth factor deprivation
- performance in the rope hang test (6-OHDA rat; 0.5 mg/kg ip, 2 weeks after 6-OHDA lesion): completely restored the performance
- motor deficits in the 6-OHDA rat (6-OHDA rat; 2 mg/kg by oral gavage/48 hrs, from 14 days post-op): reverses motor deficits
- mean spine numbers per 50 μm dendrite length (hippocampal neurons [4]): 23.9 spines per 50 μm dendrite length
